Here are results for seven compounds from patent US20230201383A1, “PSMA TARGETING UREA-BASED LIGANDS FOR PROSTATE CANCER RADIOTHERAPY AND IMAGING” (Rigshospitalet, priority 2020, published 2023).

Entries after “also recorded” stand apart in the source; their conditions may differ. Where a name gives a salt, the structure may show the parent alone.

The test system of one series is PSMA(+) LNCaP cells. As to the kind of experiment: Internalisation and cell surface binding of 68Ga-labeled compounds in LNCaP cells. It counts as cell-based, human. Here is the method: Compounds Ii, Ij, Ik, Il, Im and In was provided using the same method as disclosed in Example 3 and in vitro test of the binding affinity and internalisation of the compounds were examined using the method as described in Benesova et al, 2016^9. The iodine isotope used was ^127I.
For internalisation determinations, a day before the experiment, PSMA(+) LNCaP cells were seeded in a poly-L-lysine coated 24-well plate (10^5 cells per well) and maintained at 37° C. in an atmosphere of 5% CO2 under supplemented RMPI medium (10% Fetal Calf Serum, 1% sodium pyruvate, 1% FIS). Cells were incubated with 250 μL of radiolabelled compound diluted in RPMI medium (final concentration of [^68Ga]-peptide: 30 nM) and 500 μM of PMPA (2-phosphonomethyl-pentanedioic acid) for the blocked series, for 45 min at 37° C. Cellular uptake was interrupted by washing the cells with ice-cold PBS (3×1 mL). Surface bound radioactivity was removed by incubating twice with 0.5 mL glycine (50 mM, pH=2.8) for 5 min. Thereafter, cells were washed with PBS (1 mL) and lysed employing NaOH (0.3 M) during 10 min. Lysates and surface-bound activity were collected and measured in a gamma-counter (Perkin Elmer 2480, Wizard, Gamma Counter). The cell uptake was calculated as percent of the initially added radioactivity bound to […].
For internalisation studies androgen-sensitive human prostate adenocarcinoma cells (LNCaP) highly overexpressing PSMA were incubated with the ^68Ga-labeled compounds resulting in specific cell surface binding of all tested compounds (Table 2).

Series [1] deals with LNCaP-tumor-bearing athymic nude mice. As to the kind of experiment: Small-animal PET imaging: tumor uptake and pharmacokinetic profile. It is filed as in vivo. The conditions noted are these: for Binding profile and biodistribution/pharmacokinetics compared with PSMA-617: direct head-to-head comparison with PSMA-617. The procedure: For the experimental tumor models 1×10^7 cells of LNCaP (in 50% Matrigel; Becton Dickinson) were subcutaneously inoculated into the right flank of 7- to 8-week-old male BALB/c nu/nu mice (Janvier). For imaging studies, mice were anesthetized (2% isoflurane) and 0.5 nmol of the ^68Ga-labeled compound in 0.9% NaCl (pH 7) were injected into the tail vein. PET imaging was performed with μPET/MRI scanner (BioSpec 3T, Bruker) with a dynamic scan for 60 min. The images were iteratively reconstructed (MLEM 0.5 algorithm, 12 iterations) and were converted to SUV images. Quantification was done using a ROI (region of interest) technique and data in expressed in time activity curves as SUVbody weight. All animal experiments complied with the current laws of the Federal Republic of Germany.
FIGS. 2 to 7 show the pharmacokinetic study with small-animal PET imaging. Time activity curves for non-target organs and tumor after injection of 0.5 nmol ^68Ga-labeled compounds in LNCaP-tumor-bearing athymic nude mice (right trunk) up to 60 min p.i. SUV=standardized uptake value.

The mark [2] stands for this setting: 68Ga-labeled compounds, 30 nM, 45 min at 37° C., LNCaP cells, specific uptake by blockage with 500 μM 2-PMPA, mean ± SD (n=3).
The mark [3] stands for this setting: 68Ga-labeled compounds, LNCaP cells.
Where [4] appears, read: 0.5 nmol 68Ga-labeled compound i.v., PET up to 60 min p.i., time activity curves (SUV).
Where [5] appears, read: 68Ga-labeled compounds, LNCaP cells, trifluoroacetic acid salt.

As to `O=C(O)CC[C@H](NC(=O)N[C@@H](CCCCNC(=O)[C@H](Cc1ccccc1I)NC(=O)[C@H]1CC[C@H](CNC(=O)CN2CCN(CC(=O)O)CCN(CC(=O)O)CCN(CC(=O)O)CC2)CC1)C(=O)O)C(=O)O` [Ii, (((S)-1-carboxy-5-((S)-3-(2-iodophenyl)-2-((1r,4S)-4-((2-(4,7,10-tris(carboxymethyl)-1,4,7,10-tetraazacyclododecan-1-yl)acetamido)methyl)cyclohexane-1-carboxamido)propanamido)pentyl)carbamoyl)-L-glutamic acid trifluoroacetic acid salt], in the series on PSMA(+) LNCaP cells (setting [2]), the “Specifically cell surface bound” value was 1.1 ± 0.4 % IA/10^5 cells and the Specifically internalised is reported as 0.7 ± 0.1 % IA/10^5 cells. Also, in the series on PSMA(+) LNCaP cells (setting [3]), the “Internalisation compared with PSMA-617 (in words)” value was “comparable to PSMA-617”. Also, the “Tumor-to-muscle ratio compared with PSMA-617” value in series [1] (setting [4]) is on record as “increased at later time points compared to PSMA-617”. The “Binding profile and biodistribution/pharmacokinetics compared with PSMA-617” value in series [1] is recorded as “comparable or superior to values observed for PSMA-617”.

In the case of `O=C(O)CC[C@H](NC(=O)N[C@@H](CCCCNC(=O)[C@H](Cc1cccc(I)c1)NC(=O)[C@H]1CC[C@H](CNC(=O)CN2CCN(CC(=O)O)CCN(CC(=O)O)CCN(CC(=O)O)CC2)CC1)C(=O)O)C(=O)O` [Ij, (((S)-1-carboxy-5-((S)-3-(3-iodophenyl)-2-((1r,4S)-4-((2-(4,7,10-tris(carboxymethyl)-1,4,7,10-tetraazacyclododecan-1-yl)acetamido)methyl)cyclohexane-1-carboxamido)propanamido)pentyl)carbamoyl)-L-glutamic acid trifluoroacetic acid salt], in the series on PSMA(+) LNCaP cells (setting [2]), the “Specifically cell surface bound” value was determined as 2.3 ± 0.2 % IA/10^5 cells and the Specifically internalised is 0.8 ± 0.3 % IA/10^5 cells. The “Internalisation compared with PSMA-617 (in words)” value with PSMA(+) LNCaP cells (setting [5]) is reported as “higher than or comparable to PSMA-617; also recorded: comparable to PSMA-617”.

As for `O=C(O)CC[C@H](NC(=O)N[C@@H](CCCCNC(=O)[C@H](Cc1ccc(I)cc1)NC(=O)[C@H]1CC[C@H](CNC(=O)CN2CCN(CC(=O)O)CCN(CC(=O)O)CCN(CC(=O)O)CC2)CC1)C(=O)O)C(=O)O` [Ik, (((S)-1-carboxy-5-((S)-3-(4-iodophenyl)-2-((1r,4S)-4-((2-(4,7,10-tris(carboxymethyl)-1,4,7,10-tetraazacyclododecan-1-yl)acetamido)methyl)cyclohexane-1-carboxamido)propanamido)pentyl)carbamoyl)-L-glutamic acid trifluoroacetic acid salt], in the series on PSMA(+) LNCaP cells (setting [2]), the “Specifically cell surface bound” value is 0.7 ± 0.1 % IA/10^5 cells and the Specifically internalised is given as 0.6 ± 0.3 % IA/10^5 cells. For the same compound, the “Internalisation compared with PSMA-617 (in words)” value with PSMA(+) LNCaP cells (setting [3]) was “comparable to PSMA-617”. In series [1] (setting [4]), the “Tumor accumulation (reversibility)” value is reported as “more reversible tumor accumulation”.

For `O=C(O)CC[C@H](NC(=O)N[C@@H](CCCCNC(=O)[C@@H](Cc1c[nH]c2ccc(I)cc12)NC(=O)[C@H]1CC[C@H](CNC(=O)CN2CCN(CC(=O)O)CCN(CC(=O)O)CCN(CC(=O)O)CC2)CC1)C(=O)O)C(=O)O` [Il, (((S)-1-carboxy-5-((R)-3-(5-iodo-1H-indol-3-yl)-2-((1r,4R)-4-((2-(4,7,10-tris(carboxymethyl)-1,4,7,10-tetraazacyclododecan-1-yl)acetamido)methyl)cyclohexane-1-carboxamido)propanamido)pentyl)carbamoyl)-L-glutamic acid trifluoroacetic acid salt], in the series on PSMA(+) LNCaP cells (setting [2]), the “Specifically cell surface bound” value amounted to 1.6 ± 0.4 % IA/10^5 cells and the Specifically internalised came out at 0.6 ± 0.2 % IA/10^5 cells. The “Internalisation compared with PSMA-617 (in words)” value in the series on PSMA(+) LNCaP cells (setting [3]) is “comparable to PSMA-617”.

As to `O=C(O)CC[C@H](NC(=O)N[C@@H](CCCCNC(=O)[C@H](Cc1ccc2ccccc2c1)NC(=O)[C@H]1CC[C@H](CNC(=O)[C@H](Cc2ccc(I)cc2)NC(=O)CN2CCN(CC(=O)O)CCN(CC(=O)O)CCN(CC(=O)O)CC2)CC1)C(=O)O)C(=O)O` [Im, (((S)-1-carboxy-5-((S)-2-((1S,4S)-4-(((S)-3-(4-iodophenyl)-2-(2-(4,7,10-tris(carboxymethyl)-1,4,7,10-tetraazacyclododecan-1-yl)acetamido)propanamido)methyl)cyclohexanecarboxamido)-3-(naphthalen-2-yl)propanamido)pentyl)carbamoyl)-L-glutamic acid trifluoroacetic acid salt], in the series with PSMA(+) LNCaP cells (setting [2]), the “Specifically cell surface bound” value turned out to be 1.6 ± 0.5 % IA/10^5 cells and the Specifically internalised is 0.9 ± 0.5 % IA/10^5 cells. Besides, the “Internalisation compared with PSMA-617 (in words)” value with PSMA(+) LNCaP cells (setting [5]) is reported as “higher than or comparable to PSMA-617; also recorded: comparable to PSMA-617”. The “Tumor uptake compared with PSMA-617” value in series [1] (setting [4]) is “higher tumor uptake compared to PSMA-617”. Besides, the “Binding profile and biodistribution/pharmacokinetics compared with PSMA-617” value in series [1] is recorded as “comparable or superior to values observed for PSMA-617”.

With `O=C(O)CC[C@H](NC(=O)N[C@@H](CCCCNC(=O)[C@H](Cc1ccc2ccccc2c1)NC(=O)[C@H](Cc1ccc(I)cc1)NC(=O)CN1CCN(CC(=O)O)CCN(CC(=O)O)CCN(CC(=O)O)CC1)C(=O)O)C(=O)O` [In, (((S)-1-carboxy-5-((S)-2-((S)-3-(4-iodophenyl)-2-(2-(4,7,10-tris(carboxymethyl)-1,4,7,10-tetraazacyclododecan-1-yl)acetamido)propanamido)-3-(naphthalen-2-yl)propanamido)pentyl)carbamoyl)-L-glutamic acid trifluoroacetic acid salt], in the series on PSMA(+) LNCaP cells (setting [2]), the “Specifically cell surface bound” value worked out at 0.4 ± 0.1 % IA/10^5 cells and the Specifically internalised worked out at 0.2 ± 0.1 % IA/10^5 cells. In addition, in the series on PSMA(+) LNCaP cells (setting [3]), the “Internalisation compared with PSMA-617 (in words)” value was “reduced internalised fraction”.

`O=C(O)CC[C@H](NC(=O)N[C@@H](CCCCNC(=O)[C@H](Cc1ccc2ccccc2c1)NC(=O)[C@H]1CC[C@H](CNC(=O)CN2CCN(CC(=O)O)CCN(CC(=O)O)CCN(CC(=O)O)CC2)CC1)C(=O)O)C(=O)O` [PSMA-617, reference compound] yielded a Specifically internalised in the series on PSMA(+) LNCaP cells (setting [2]) of 0.6 ± 0.2 % IA/10^5 cells. The “Specifically cell surface bound” value with PSMA(+) LNCaP cells (0.75 h, 0.03 µM) was found to be 1.5 ± 0.4 % IA/10^5 cells.
